Data published in patent US20230139883A1, “Peptides for Inducing Differentiation” (Shimadzu Corporation, priority 2020, published 2023).

Columns and labels:
[1] = tested on: FGFR2; test: Yeast display screening (MACS/FACS) against FGFR2 with Sanger sequencing of single colonies; assay type: binding; details: frequency of the clone among randomly selected single colonies after FGFR2 screening
Method: Cells were then charged to an LS column attached to a magnetic stand. In order to remove yeast cells not bound to FGFR2, 7 mL of PBSM was flowed through the LS column twice. The LS column was then removed from the magnetic stand and FGFR2-binding yeast clones were collected by flowing SDCAA medium and cultured. The above operations were deemed as one round, and a total of three rounds were performed (Table 10). Next, yeast clones with high binding activity were screened from the yeast collected by MACS, using FACS (Fluorescence-activated cell sorting). FGFR2-Fc and mouse anti-FLAG antibodies were bound to the yeast library, followed by binding of anti-mouse IgG-Alexa488 and anti-human Fc antibody-Alexa647. […] The binding of the peptide to FGFR2 can also be detected by the fluorescence intensity of Alexa647. With that, yeast clones with high fluorescence intensities of Alexa488 and Alexa647 were collected by FACS cell sorter (BD FACS AriaIII).
The phage library eluted after panning of Example 7 (Table 9: Input phage (Round 4)) was subjected to Human IgG Fc-immobilized plate, and negative selection was performed by collecting unbound phages. The phage library was then acted to FGFR3 prepared to concentrations of 100 nM, 10 nM, and 1 nM. Bound phages were then collected. The genomic DNA of the collected phages was extracted, samples were prepared according to Illumina's protocol for Miseq, and a comprehensive analysis of the phage genomic DNA was performed. Among the sequences obtained, 20 sequences high incidence rates were selected (Table 11). The yeast cells acquired in the screening of Example 8 were seeded onto SDCAA agar plates and cultured. Fourteen single colonies formed on the agar plates were randomly selected, and for each clone, the peptide DNA sequence incorporated into the yeast expression plasmid was analyzed using the Sanger method (Table 12).

[2] = tested on: FGFR3; test: Phage display selection against FGFR3 with Miseq analysis of the bound phages; assay type: binding; details: for 1 nM Num. of reads: phage library after panning Round 4, bound to 1 nM FGFR3; for 10 nM Num. of reads: phage library after panning Round 4, bound to 10 nM FGFR3; for 100 nM Num. of reads: phage library after panning Round 4, bound to 100 nM FGFR3; for 1 nM Ranking / 10 nM Ranking / 100 nM Ranking: rank by number of reads; for 1 nM Ranking: 1 nM FGFR3; for 10 nM Ranking: 10 nM FGFR3; for 100 nM Ranking: 100 nM FGFR3
Method: The collected phage library was mixed with 100 nM of FGFR3 solution and allowed to react overnight at 4° C. (Table 9: Panning Round 1). After the reaction, the binding phages were captured by magnetic beads modified with protein A, and washed three times with PBS-T, followed by eluting the bound phages with Gly-HCl (pH 2.0). After neutralizing with 2M Tris, the pages were infected to E. coli (TG1 strain). After 4 hours of incubation, helper phages were added, and the E. coli (TG1 strain) were allowed to produce phages overnight. Next, phage solution was prepared from the culture supernatant. The prepared phage solution was mixed with FGFR3 solution and allowed to react overnight at 4° C. (Table 9: Panning Round 2). After the reaction, the bound phages were eluted. Phage solution prepared in the same way was mixed with FGFR3 solution and allowed to react at 4° C. for 1 hour (Table 9: Panning Round 3). After the reaction, the bound phages were eluted. This operation was further repeated, and after Panning Round 4, the bound phages were eluted. Note that as the rounds proceeded, the number of washes with PBS-T was increased. (Table 9). The titer of the Output phage in each round was also determined. The titer of phage was determined from the number of colonies obtained by incubating the E. coli TG1 strain contacted with the phage at 37° C. overnight. The phage library eluted after panning of Example 7 (Table 9: Input phage (Round 4)) was subjected to Human IgG Fc-immobilized plate, and negative selection was performed by collecting unbound phages. The phage library was then acted to FGFR3 prepared to concentrations of 100 nM, 10 nM, and 1 nM. Bound phages were then collected. The genomic DNA of the collected phages was extracted, samples were prepared according to Illumina's protocol for Miseq, and a comprehensive analysis of the phage genomic DNA was performed. Among the sequences obtained, 20 sequences high incidence rates were selected (Table 11). The yeast cells acquired in the screening of Example 8 were seeded onto SDCAA agar plates and cultured. Fourteen single colonies formed on the agar plates were randomly selected, and for each clone, the peptide DNA sequence incorporated into the yeast expression plasmid was analyzed using the Sanger method (Table 12).

| Substance | Frequency [1] | 1 nM Num. of reads [2] | 10 nM Num. of reads [2] | 100 nM Num. of reads [2] | 1 nM Ranking [2] | 10 nM Ranking [2] | 100 nM Ranking [2] |
| --- | --- | --- | --- | --- | --- | --- | --- |
| CALELLALRGELEALRGGGGGGG----KLGALHLKLFALQWAC [FGFR_Y08] | 1 |  |  |  |  |  |  |
| CAAELAALEAELAALEGRPVRTVLTNGKLMVLKSKLQELKHAC [F3-100n182] |  | 1723 | 1143 | 1423 | 7 | 8 | 8 |
| CAAELAALEAELAALEGGRTPVVTTMGKLMGLKLKLQQLKRAC [F3-100n322] |  | 1234 | 813 | 1061 | 12 | 16 | 18 |
| CAVELYALHRELYALYGGGGGGS----KLYALYLKLLALQLAC [FGFR_Y05] | 1 |  |  |  |  |  |  |
| CARELQALLKELQALGGGGGGGG----KLLALFVKLYALRLAC [FGFR_Y02] | 1 |  |  |  |  |  |  |
| CAAELAALEAELAALEGETNMTVLMTGKLLVLKHKLEHLKWAC [F3-100n386] |  | 1216 | 781 | 1028 | 13 | 18 | 19 |
| CAAELAALEAELAALEGQKHFTLGGLGKLIVLKKQLRILKCAC [F3-100n174] |  | 1668 | 1223 | 1811 | 8 | 7 | 6 |
| CAAELAALEAELAALEGEVNMTRARAGKLLVLKVKLHGLKQAC [F3-100n504] |  | 1062 | 741 | 1006 | 18 | 21 | 21 |
| CAAELAALEAELAALEGLHTLTLMQTGKLLVLKMKLRELKWAC [F3-100n192] |  | 1100 | 707 | 857 | 15 | 23 | 28 |
| CAAELAALEAELAALEGLDYHTVLSTGKLMVLKRKLNILKLAC [F3-100n250] |  | 966 | 856 | 1096 | 20 | 14 | 16 |
| CAAELAALEAELAALEGGAPVTIMGVGKLMVLKEKLRNLKDAC [F3-100n16] |  | 1095 | 647 | 775 | 16 | 26 | 33 |
| CAAELAALEAELAALEGRTFTIGEVKGKLQGLIMKLHHLKDAC [F3-100n116] |  | 1895 | 2291 | 3236 | 6 | 2 | 1 |
| CAAELAALEAELAALEGGAFLTVGRAGKLMMLKQKLVRLKCAC [F3-100n117] |  | 1355 | 948 | 1188 | 9 | 9 | 12 |
| CAAELAALEAELAALEGVKELTLGTVGKLMSLKYKLWSLKQAC [F3-100n410] |  | 2547 | 1717 | 2279 | 4 | 5 | 5 |
| CAAELAALEAELAALEGKDFRTIELVGKLVLLKYKLNNLKEAC [F3-100n548] |  | 1248 | 873 | 1088 | 11 | 13 | 17 |
| CAAELAALEAELAALEGVRPETMSQVGKLLVLKHRLGQLKRAC [F3-100n9] |  | 3326 | 2152 | 2566 | 1 | 3 | 4 |
| CAAELAALEAELAALEGENVYTLGGLGKLMLLKYKLRELKGAC [F3-100n458] |  | 1304 | 789 | 1023 | 10 | 17 | 20 |
| CAAELAALEAELAALEGSTARTLMQVGKLEMLKYKLLELKCAC [F3-100n3] |  | 1084 | 613 | 850 | 17 | 29 | 29 |
| CAAELAALEAELAALEGGRDRTLELSGKLLVLKSKLHWLKHAC [F3-100n251] |  | 3203 | 2387 | 3153 | 2 | 1 | 2 |
| CAAELAALEAELAALEGEGMSTLNRQGKLSVLKSKLLWLKHAC [F3-100n228] |  | 2006 | 1447 | 1753 | 5 | 6 | 7 |
| CAAELAALEAELAALEVGRVKTLGRYGKLMVLKHQLRNLKCAC [F3-100n161] |  | 1045 | 903 | 1261 | 19 | 10 | 9 |
| CAAELAALEAELAALEGASTPTLESRGKLGSLIFKLRQLKVAC [F3-100n50] |  | 1149 | 820 | 1121 | 14 | 15 | 14 |
| CAAELAALEAELAALEGKEHPTLRTSGKLLHLKLKLHELKRAC [F3-100n131] |  | 2801 | 2079 | 2648 | 3 | 4 | 3 |
